Data taken from ChEMBL document CHEMBL1208752, “Selective delivery of 2-hydroxy APA to Trypanosoma brucei using the melamine motif” (Bioorg Med Chem Lett, 2010).

Tests used:
[1] = system: Trypanosoma brucei brucei; test: Antitrypanosomal activity against tbAT1 deficient Trypanosoma brucei brucei at 100 uM after 2 days by alamar blue assay; assay type: functional, organism-based
[2] = system: Trypanosoma brucei brucei; test: Antitrypanosomal activity against wild type Trypanosoma brucei brucei expressing P2 transporter at 100 uM after 2 days by alamar blue assay; assay type: functional, organism-based

EC50 [1]	EC50 [2]	SMILES
Not Active	–	CC(Nc1nc(N)nc(N)n1)C(=O)OC(CN)CON.Cl.Cl (centres undefined)
–	Not Active	Cl.Cl.NCC(O)CON (centres undefined)
Not Active	–	Cl.Cl.NCC(CON)OC(=O)CCNc1nc(N)nc(N)n1 (centres undefined)
Not Active	–	Cl.Cl.NCC(CON)OC(=O)CNc1nc(N)nc(N)n1 (centres undefined)
